Reference: patent US20260226041A1 (ARIGENX THERAPEUTICS CO., LTD., priority 2023, published 2026)
Blank lines part the entries; values can stand above or below the molecule they belong to.

Legend:
[1] = target: T1, rat AHR (Rattus norvegicus, UniProt P41738); test: Rat AHR agonist luciferase assay (6x XRE Nano-luc reporter in H-4-II-E cells); type: cell-based; conditions: AHR activation, rat hepatoma H-4-II-E reporter cells, incubated 4 to 24 hours; read-out: H4IIE EC50
T1 construct: The reporter gene was introduced into a genome of rat hepatoma H-4-II-E cells via lentiviral infection; endogenous in cells; host or cells: H-4-II-E (rat hepatoma) with a lentivirally integrated 6x XRE Nano-luc reporter
T1 sequence (P41738 10-853): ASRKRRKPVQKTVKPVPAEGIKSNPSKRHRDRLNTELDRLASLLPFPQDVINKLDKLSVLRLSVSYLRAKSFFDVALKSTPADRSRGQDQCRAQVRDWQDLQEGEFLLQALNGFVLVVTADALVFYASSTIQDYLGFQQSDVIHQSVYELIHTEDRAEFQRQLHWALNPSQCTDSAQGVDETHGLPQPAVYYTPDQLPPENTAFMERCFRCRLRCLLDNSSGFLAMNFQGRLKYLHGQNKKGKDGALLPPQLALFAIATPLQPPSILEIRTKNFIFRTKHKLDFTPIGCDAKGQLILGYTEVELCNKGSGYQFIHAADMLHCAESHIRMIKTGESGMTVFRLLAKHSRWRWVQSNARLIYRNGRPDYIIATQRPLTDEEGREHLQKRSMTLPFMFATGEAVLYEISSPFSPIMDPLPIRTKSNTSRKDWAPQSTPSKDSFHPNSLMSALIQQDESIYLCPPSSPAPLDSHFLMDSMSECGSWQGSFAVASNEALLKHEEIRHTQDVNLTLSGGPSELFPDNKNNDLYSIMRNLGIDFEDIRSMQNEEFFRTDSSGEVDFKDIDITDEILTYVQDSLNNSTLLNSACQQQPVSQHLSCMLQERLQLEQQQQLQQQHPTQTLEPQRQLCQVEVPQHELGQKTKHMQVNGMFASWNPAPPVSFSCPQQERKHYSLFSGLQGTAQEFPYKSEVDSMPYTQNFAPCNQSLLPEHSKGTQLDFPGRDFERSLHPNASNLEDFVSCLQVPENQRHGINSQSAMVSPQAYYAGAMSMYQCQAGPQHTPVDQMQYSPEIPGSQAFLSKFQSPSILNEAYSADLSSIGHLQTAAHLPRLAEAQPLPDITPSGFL
Description: A lentivirus containing the reporter gene was generated by co-transfecting the transfer plasmid with packaging plasmids into 293T cells using conventional transfection methods in the art, followed by purification. The reporter gene was introduced into a genome of rat hepatoma H-4-II-E cells via lentiviral infection, and cells stably expressing the reporter gene were selected with puromycin for the rat AHR agonist luciferase assay.

[2] = target: mouse AHR (Mus musculus, UniProt P30561); test: Mouse AHR agonist luciferase assay (6x XRE Nano-luc reporter in Hepa1-6 cells);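 further: stable Hepa1-6 reporter line, 4–24 h exposure, 11-point serial dilution, Nano-Glo luminescence as fold over medium-only baseline, EC50 from four-parameter fit of activation fold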
Chain of mouse AHR (P30561 10-805 limits assumed): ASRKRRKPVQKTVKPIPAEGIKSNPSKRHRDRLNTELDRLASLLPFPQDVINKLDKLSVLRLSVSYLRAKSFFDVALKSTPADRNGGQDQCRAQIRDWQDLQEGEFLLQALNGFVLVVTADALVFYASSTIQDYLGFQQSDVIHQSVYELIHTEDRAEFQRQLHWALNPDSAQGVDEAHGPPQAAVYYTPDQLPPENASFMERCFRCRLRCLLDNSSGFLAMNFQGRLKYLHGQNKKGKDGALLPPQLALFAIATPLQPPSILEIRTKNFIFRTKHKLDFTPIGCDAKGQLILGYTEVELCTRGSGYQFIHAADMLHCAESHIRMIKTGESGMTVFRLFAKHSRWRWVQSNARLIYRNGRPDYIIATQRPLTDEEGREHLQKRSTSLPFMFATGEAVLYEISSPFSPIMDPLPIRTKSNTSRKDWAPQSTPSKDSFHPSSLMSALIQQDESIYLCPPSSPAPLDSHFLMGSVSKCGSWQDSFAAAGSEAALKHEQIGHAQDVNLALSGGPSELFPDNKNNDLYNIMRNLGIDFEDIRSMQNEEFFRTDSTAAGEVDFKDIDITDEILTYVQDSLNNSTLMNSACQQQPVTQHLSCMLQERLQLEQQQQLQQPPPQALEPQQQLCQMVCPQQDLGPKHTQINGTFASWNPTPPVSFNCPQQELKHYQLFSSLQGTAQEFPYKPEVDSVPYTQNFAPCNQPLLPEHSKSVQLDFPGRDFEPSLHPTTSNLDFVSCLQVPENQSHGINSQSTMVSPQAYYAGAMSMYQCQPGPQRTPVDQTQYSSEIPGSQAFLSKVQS
Chain of mouse AHR (P53762 whole entry partner): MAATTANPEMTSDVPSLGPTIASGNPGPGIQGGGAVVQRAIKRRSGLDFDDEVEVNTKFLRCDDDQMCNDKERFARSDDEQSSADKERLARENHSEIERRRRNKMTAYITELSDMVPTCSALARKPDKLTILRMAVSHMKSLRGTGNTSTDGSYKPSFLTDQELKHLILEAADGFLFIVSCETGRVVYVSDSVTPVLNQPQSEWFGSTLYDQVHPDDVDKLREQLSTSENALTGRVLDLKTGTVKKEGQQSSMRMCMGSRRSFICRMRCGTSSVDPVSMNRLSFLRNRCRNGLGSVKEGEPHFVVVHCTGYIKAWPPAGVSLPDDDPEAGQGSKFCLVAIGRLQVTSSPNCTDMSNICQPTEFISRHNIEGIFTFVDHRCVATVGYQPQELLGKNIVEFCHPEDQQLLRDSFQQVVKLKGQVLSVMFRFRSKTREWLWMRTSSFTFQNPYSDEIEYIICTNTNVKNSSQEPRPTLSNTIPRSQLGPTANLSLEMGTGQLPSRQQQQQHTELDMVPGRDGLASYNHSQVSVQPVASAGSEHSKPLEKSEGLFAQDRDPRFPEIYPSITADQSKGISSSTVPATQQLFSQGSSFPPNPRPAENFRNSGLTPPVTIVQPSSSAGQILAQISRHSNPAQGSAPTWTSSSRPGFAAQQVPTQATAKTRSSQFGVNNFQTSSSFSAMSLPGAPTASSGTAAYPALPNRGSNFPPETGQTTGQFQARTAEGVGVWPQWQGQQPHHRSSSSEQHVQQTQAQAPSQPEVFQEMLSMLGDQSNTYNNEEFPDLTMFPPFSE
Description: The reporter gene plasmid was transfected into mouse hepatoma Hepa1-6 cells by a conventional liposome transfection method in the art, and stably expressing cells were selected by puromycin for the mouse AHR agonist luciferase assay.
On day one, the stably expressing reporter gene Hepa1-6 cell line was counted and seeded into a white opaque 96-well plate at a density of 1×10^4 cells per well −8×10^4 cells per well using 100 μL of phenol red-free Dulbecco's Modified Eagle Medium (DMEM) (DMEM without phenol red, 10% fetal bovine serum). The cells were cultured in an incubator maintained at 37° C. with 5% CO2 for 24 hours.
Test compounds were prepared as 10 mM stock solutions in DMSO and stored at 4° C. protected from light. Before treatment, the compound stock solutions, positive control compounds (e.g., dioxin, ITE, or kynurenine), and a negative control compound (DMSO) were subjected to preliminary dilution (determined based on pre-experiments) with complete medium without tryptophan and phenol red, followed by 3- to 20-fold serial dilutions to 11 concentration points to obtain 10× dilution solutions. When treating the cells, 10 μL of medium was first aspirated from the 96-well plate containing the seeded cells, and then 10 μL of the serially diluted 10× dilution solution was added. Each compound was tested in duplicate, and each duplicate experiment included a well with a concentration of 0 (i.e., containing only medium) to determine the baseline. The reporter cells were returned to the incubator and incubated for 4 to 24 hours after treatment.
After treatment, 100 μL/well of Nano-Glo Luciferase Assay Reagent was added to the 96-well plate, and the RLU of each well was measured. The RLU values for the wells with the concentration of 0 on the 96-well plates were averaged to calculate the baseline Ave RLU^Vehicle The activity of AHR induced by the test compounds at different concentrations was calculated according to Formula (1) based on the ratio of RLU^Test Cmpd from the experimental groups to the baseline Ave RLU^Vehicle, to determine the activation fold.
The activation fold and the corresponding compound concentration were fitted using GraphPad Prism 9 with [Agonist] vs. response—variable slope (four parameters) to determine the EC50 of the compound for AHR activation.

[3] = target: T2, human AHR (Homo sapiens, UniProt P35869); test: Human AHR agonist luciferase assay (CYP1A1 promoter Nano-luc reporter in HepG2 cells);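 further: stably transfected HepG2 clone, DRE-containing 1200 bp promoter region driving Nano-luc, treated 4 to 24 h with 11-point dilutions in tryptophan-free medium, medium-only wells as baseline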
T2 sequence (P35869 11-848): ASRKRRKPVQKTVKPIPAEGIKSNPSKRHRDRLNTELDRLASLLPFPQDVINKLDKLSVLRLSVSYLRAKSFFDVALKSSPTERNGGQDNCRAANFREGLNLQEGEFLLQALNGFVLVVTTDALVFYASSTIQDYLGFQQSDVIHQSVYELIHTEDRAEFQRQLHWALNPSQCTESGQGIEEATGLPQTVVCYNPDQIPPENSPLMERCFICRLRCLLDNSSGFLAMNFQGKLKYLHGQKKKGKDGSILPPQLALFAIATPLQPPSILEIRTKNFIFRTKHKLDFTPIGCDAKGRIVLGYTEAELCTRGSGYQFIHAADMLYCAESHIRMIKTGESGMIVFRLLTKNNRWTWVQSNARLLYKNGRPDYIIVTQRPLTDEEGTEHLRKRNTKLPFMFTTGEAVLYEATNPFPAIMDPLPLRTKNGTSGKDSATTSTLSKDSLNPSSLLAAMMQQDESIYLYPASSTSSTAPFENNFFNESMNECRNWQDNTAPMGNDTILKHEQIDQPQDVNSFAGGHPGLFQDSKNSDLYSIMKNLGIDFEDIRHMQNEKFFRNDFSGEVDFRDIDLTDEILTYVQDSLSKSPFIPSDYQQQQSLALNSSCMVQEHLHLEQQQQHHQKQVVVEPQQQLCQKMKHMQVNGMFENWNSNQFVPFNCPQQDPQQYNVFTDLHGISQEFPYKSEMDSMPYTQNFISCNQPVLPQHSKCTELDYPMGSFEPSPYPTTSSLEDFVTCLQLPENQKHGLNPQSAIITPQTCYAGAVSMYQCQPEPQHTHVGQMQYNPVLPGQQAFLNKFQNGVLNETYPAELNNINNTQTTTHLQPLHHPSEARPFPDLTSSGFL
Description: To detect AHR activation, a reporter gene plasmid was constructed by placing the gene sequence from −1200 bp to 0 bp upstream of CYP1A1 in front of a Nano-luc luciferase reporter gene according to conventional construction methods of reporter gene plasmids in the art. The reporter gene plasmid was transfected into human hepatoma HepG2 cells by a conventional liposome transfection method in the art, and stably expressing cells were selected by puromycin. The selected cells were diluted to a concentration of 5 cells/mL and seeded into a 96-well plate at 100 μL/well, and single clones were obtained after growth. A single clone with normal morphology, normal growth, and the highest induction signal was selected for the human AHR agonist luciferase assay.
On day one, the HepG2 monoclonal cell line stably expressing reporter gene was counted and seeded into a white opaque 96-well plate at a density of 1×10^4 cells per well −8×10^4 cells per well using 100 μL of complete medium without tryptophan and phenol red (minimal essential medium (MEM) without tryptophan and phenol red, 10% (v/v) fetal bovine serum, 1× non-essential amino acids, 1× sodium pyruvate, and 1× GlutaMax). The cells were cultured in an incubator maintained at 37° C. with 5% (v/v) CO2 for 24 hours.
Test compounds were prepared as 10 mmol/L stock solutions in dimethyl sulfoxide (DMSO) and stored at 4° C. protected from light. Before treatment, the compound stock solutions, positive control compounds (e.g., dioxin, 2-(1H-indole-3-carbonyl)thiazole-4-carboxylic acid methyl ester (ITE), or kynurenine), and a negative control compound (DMSO) were subjected to preliminary dilution (determined based on pre-experiments) with the complete medium without tryptophan and phenol red, followed by 3- to 20-fold serial dilutions to 11 concentration points to obtain 2× dilution solutions. When treating the cells, 50 μL of medium was first aspirated from the 96-well plate containing the seeded cells, and then 50 μL of the serially diluted 2× dilution solution was added. Each compound was tested in duplicate, and each duplicate experiment included a well with a concentration of 0 (i.e., containing only the medium) to determine the baseline. The reporter cells were returned to the incubator and incubated for 4 to 24 hours after treatment.
After treatment, 100 μL/well of Nano-Glo Luciferase Assay Reagent was added to the 96-well plate, and the relative light unit (RLU) of each well was measured. The RLU values for the wells with the concentration of 0 on the 96-well plates were averaged to calculate the baseline Ave RLU^Vehicle. The activity of AHR induced by the test compounds at different concentrations was calculated according to Formula (1) based on the ratio of RLU^Test Cmpd from the experimental groups to the baseline Ave RLU^Vehicle, to determine the activation fold.
The activation fold and the corresponding compound concentration were fitted using GraphPad Prism 9 with [Agonist] vs. response—variable slope (four parameters) to calculate the EC50 of the compound for AHR activation.

SMILES: O=C(c1nc(C2(O)CCOC2=O)cs1)c1c[nH]c2cc(F)ccc12 (stereo not drawn) [Compound 2-2]
- EC50 [1]: ≤ 10 nM
- EC50 [2]: < 100 nM
- EC50 [3]: < 500 nM

SMILES: COc1ccc2c(C(=O)c3nc(C4(O)CCOC4=O)cs3)c[nH]c2c1 (stereo not drawn) [Compound 2-3]
- EC50 [1]: ≤ 10 nM
- EC50 [2]: < 100 nM
- EC50 [3]: < 500 nM

SMILES: O=C(c1nc(C2(O)CCOC2=O)cs1)c1c[nH]c2ccccc12 (stereo not drawn) [Compound 2]
- EC50 [1]: ≤ 10 nM
- EC50 [2]: < 100 nM
- EC50 [3]: < 500 nM

SMILES: O=C(c1nc(C2(Cl)CCOC2=O)cs1)c1c[nH]c2ccccc12 (stereo not drawn) [Compound 4]
- EC50 [1]: ≤ 10 nM
- EC50 [2]: < 100 nM
- EC50 [3]: < 500 nM

SMILES: COC(=O)c1csc(C(=O)c2c[nH]c3ccccc23)n1 [ITE, 2-(1H-indole-3-carbonyl)thiazole-4-carboxylic acid methyl ester, reference compound]
- EC50 [1]: 10 to 2000 nM
- EC50 [2]: 100 to 2000 nM
- EC50 [3]: < 500 nM

More lines, now with the values ahead:

- EC50 [1]: ≤ 10 nM
- EC50 [2]: < 100 nM
- EC50 [3]: < 500 nM
SMILES: O=C(c1nc(C2(Cl)CCOC2=O)cs1)c1c[nH]c2cc(F)ccc12 (stereo not drawn) [Compound 4-2]

- EC50 [1]: 2000 to 100000 nM
- EC50 [2]: < 100 nM
- EC50 [3]: < 500 nM
SMILES: COc1ccc2[nH]cc(C(=O)c3nc(C4CCN(C)C4=O)cs3)c2c1 (stereo not drawn) [Compound 7-5]

- EC50 [1]: 2000 to 100000 nM
- EC50 [2]: < 100 nM
- EC50 [3]: < 500 nM
SMILES: CN1CCC(c2csc(C(=O)c3c[nH]c4cc5c(cc34)OCO5)n2)C1=O (stereo not drawn) [Compound 7-6]
